Reference: patent publication US20200206370A1, “18F-LABELED BISPH[…] PET IMAGING” (University of Southern California, priority 2016, published 2020)

Experiment: MicroPET imaging and organ uptake quantification after tail vein injection in normal nude mice
Format: in vivo, mouse
Method: All animal studies were approved by the University of Southern California Institutional Animal Care and Use Committee. Female athymic nude mice (about 4-6 weeks old, with a body weight of 20-25 g) were obtained from Harlan Laboratories (Livermore, Calif.). MicroPET scans were performed using an Inveon microPET scanner (Siemens Medical Solutions, Malvern, Pa., USA). A normal nude mouse was anesthetized using 2% isoflurane and injected with 1.3-2.5 MBq of [^18F]-ClFMBP via tail vein. At 0.5, 1, and 2 h post injection, static emission scans were acquired for 10 min. Raw PET images were reconstructed using 2D ordered subset expectation maximization (OSEM) algorithms with scatter, random and attenuation correction.
The 2D projection of PET images at 2 h post-injection is shown.
Accumulation of [^18F]-ClFMBP in other mouse organs was minimal.

[1] = microPET quantification, 2 h post-injection, tail vein, normal nude mice

O=P(O)(O)C([18F])(Cl)P(=O)(O)O [[^18F]-ClFMBP, (chloro[^18F]-fluoromethylene)bisphosphonic acid]
visibility of joints and bones in microPET images (0.5, 1 and 2 h post-injection, normal nude mice): clearly visible with high contrast to contralateral background
uptake of radioactivity in the bladder (microPET images, normal nude mice): Predominant uptake
accumulation in other mouse organs (microPET quantification, 2 h post-injection): minimal
uptake in bones [1]: 2.72±0.05 % ID/g
uptake in joints [1]: 2.37±0.08 % ID/g
uptake in mouse kidneys [1]: 0.16±0.08 % ID/g
uptake in mouse liver [1]: 0.21±0.04 % ID/g
route of excretion (suggested by bladder uptake in microPET images): mainly through the renal system
